Assay results: US8530489B2 (Vertex Pharmaceuticals Incorporated, priority 2006, dated 2013)

target: PLK1 (Homo sapiens, UniProt P53350); assay: PLK1 Inhibition Assay I (radioactive-phosphate incorporation); format: biochemical; conditions: Ki(app); PLK1 Inhibition Assay I or II (table does not say which)
How it was run: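 Ki(app) values came from non-linear regression of initial rates after background subtraction, with phosphopeptide measured by phosphocellulose filter binding and scintillation counting. PLK1 at 2 nM was preincubated with compound (typically from 10 μM, 2-fold dilutions) for 10 min, then run 240 min at 25° C with 350 μM [γ-33P]ATP and 450 μM peptide substrate in HEPES pH 7.5 buffer.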

Chain of PLK1 (P53350 whole entry): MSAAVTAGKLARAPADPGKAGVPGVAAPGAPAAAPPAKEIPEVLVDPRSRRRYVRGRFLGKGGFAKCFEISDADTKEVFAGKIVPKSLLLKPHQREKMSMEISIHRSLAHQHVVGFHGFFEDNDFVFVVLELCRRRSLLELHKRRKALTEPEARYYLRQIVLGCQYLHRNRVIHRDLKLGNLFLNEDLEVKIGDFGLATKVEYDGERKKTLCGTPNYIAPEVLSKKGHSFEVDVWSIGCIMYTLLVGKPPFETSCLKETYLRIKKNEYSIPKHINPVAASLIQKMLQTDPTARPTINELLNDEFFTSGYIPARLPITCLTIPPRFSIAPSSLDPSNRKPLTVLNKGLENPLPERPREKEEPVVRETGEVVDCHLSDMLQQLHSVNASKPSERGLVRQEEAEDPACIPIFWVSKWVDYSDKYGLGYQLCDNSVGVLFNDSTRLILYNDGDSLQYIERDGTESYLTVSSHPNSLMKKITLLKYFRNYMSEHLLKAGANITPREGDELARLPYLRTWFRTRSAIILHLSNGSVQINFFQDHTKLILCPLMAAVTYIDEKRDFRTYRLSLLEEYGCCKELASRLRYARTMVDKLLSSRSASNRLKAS

Row | Ki | SMILES
1 | < 3 nM | C[C@@H](Nc1ncc(C#N)c(-c2c[nH]c3ncc(C(F)(F)F)cc23)n1)[C@H]1CC[C@H](NC(=O)CO)CC1 [Compound I-211, N-((1R,4r)-4-((1R)-1-(5-cyano-4-(5-(trifluoromethyl)-1H-pyrrolo[2,3-b]pyridin-3-yl)pyrimidin-2-ylamino)ethyl)cyclohexyl)-2-hydroxyacetamide]
2 | < 3 nM | C[C@@H](Nc1ncc(C#N)c(-c2c[nH]c3ncc(C(F)(F)F)cc23)n1)C1CCN(C(=O)CCO)CC1 [Compound I-216, 2-((R)-1-(1-(3-hydroxypropanoyl)piperidin-4-yl)ethylamino)-4-(5-(trifluoromethyl)-1H-pyrrolo[2,3-b]pyridin-3-yl)pyrimidine-5-carbonitrile]
3 | < 3 nM | C[C@@H](Nc1ncc(C#N)c(-c2c[nH]c3ncc(C(F)(F)F)cc23)n1)C1CCN(CC(N)=O)CC1 [Compound I-218, 2-(4-((1R)-1-(5-cyano-4-(5-(trifluoromethyl)-1H-pyrrolo[2,3-b]pyridin-3-yl)pyrimidin-2-ylamino)ethyl)piperidin-1-yl)acetamide]
4 | < 3 nM | C[C@@H](Nc1ncc(C#N)c(-c2c[nH]c3ncc(C(F)(F)F)cc23)n1)C1CCN(C(=O)C2(O)CC2)CC1 [Compound I-220, 2-((R)-1-(1-(1-hydroxycyclopropanecarbonyl)piperidin-4-yl)ethylamino)-4-(5-(trifluoromethyl)-1H-pyrrolo[2,3-b]pyridin-3-yl)pyrimidine-5-carbonitrile]
5 | 3 to 40 nM | CC(Nc1ncc(C#N)c(-c2c[nH]c3ncc(C(F)(F)F)cc23)n1)C1CN(C(=O)C(C)(C)O)C1 (stereo not drawn) [Compound I-221, 2-(1-(1-(2-hydroxy-2-methylpropanoyl)azetidin-3-yl)ethylamino)-4-(5-(trifluoromethyl)-1H-pyrrolo[2,3-b]pyridin-3-yl)pyrimidine-5-carbonitrile]
6 | < 3 nM | C[C@@H](Nc1ncc(C#N)c(-c2c[nH]c3ncc(C(F)(F)F)cc23)n1)C1CCN(C(=O)C2CNC2)CC1 [Compound I-227, 2-((R)-1-(1-(azetidine-3-carbonyl)piperidin-4-yl)ethylamino)-4-(5-(trifluoromethyl)-1H-pyrrolo[2,3-b]pyridin-3-yl)pyrimidine-5-carbonitrile]
7 | < 3 nM | C[C@H](O)C(=O)N1CCC([C@@H](C)Nc2ncc(C#N)c(-c3c[nH]c4ncc(C(F)(F)F)cc34)n2)CC1 [Compound I-228, 2-((R)-1-(1-((S)-2-hydroxypropanoyl)piperidin-4-yl)ethylamino)-4-(5-(trifluoromethyl)-1H-pyrrolo[2,3-b]pyridin-3-yl)pyrimidine-5-carbonitrile]
8 | < 3 nM | CC(C)[C@@H](N)C(=O)N1CCC([C@@H](C)Nc2ncc(C#N)c(-c3c[nH]c4ncc(C(F)(F)F)cc34)n2)CC1 [Compound I-229, 2-((R)-1-(1-((R)-2-amino-3-methylbutanoyl)piperidin-4-yl)ethylamino)-4-(5-(trifluoromethyl)-1H-pyrrolo[2,3-b]pyridin-3-yl)pyrimidine-5-carbonitrile]

Second part, the compound before the results:

Row | SMILES | Ki
9 | C[C@@H](Nc1ncc(C#N)c(-c2c[nH]c3ncc(C(F)(F)F)cc23)n1)[C@H]1CC[C@@H](NC(=O)CO)CC1 [Compound I-212, N-((1S,4s)-4-((1R)-1-(5-cyano-4-(5-(trifluoromethyl)-1H-pyrrolo[2,3-b]pyridin-3-yl)pyrimidin-2-ylamino)ethyl)cyclohexyl)-2-hydroxyacetamide] | < 3 nM
10 | CC(C)S(=O)(=O)N1CCC([C@@H](C)Nc2ncc(C#N)c(-c3c[nH]c4ncc(C(F)(F)F)cc34)n2)CC1 [Compound I-213, 2-((R)-1-(1-(isopropylsulfonyl)piperidin-4-yl)ethylamino)-4-(5-(trifluoromethyl)-1H-pyrrolo[2,3-b]pyridin-3-yl)pyrimidine-5-carbonitrile] | < 3 nM
11 | C=C1CC(C(C)Nc2ncc(C#N)c(-c3c[nH]c4ncc(C(F)(F)F)cc34)n2)C1 (stereo not drawn) [Compound I-214, 2-(1-(3-methylenecyclobutyl)ethylamino)-4-(5-(trifluoromethyl)-1H-pyrrolo[2,3-b]pyridin-3-yl)pyrimidine-5-carbonitrile] | 3 to 40 nM
12 | C[C@@H](Nc1ncc(C#N)c(-c2c[nH]c3ncc(C(F)(F)F)cc23)n1)C1CCN(CCO)CC1 [Compound I-215, 2-((R)-1-(1-(2-hydroxyethyl)piperidin-4-yl)ethylamino)-4-(5-(trifluoromethyl)-1H-pyrrolo[2,3-b]pyridin-3-yl)pyrimidine-5-carbonitrile] | < 3 nM
13 | CC[C@H](O)C(=O)N1CCC([C@@H](C)Nc2ncc(C#N)c(-c3c[nH]c4ncc(C(F)(F)F)cc34)n2)CC1 [Compound I-217, 2-((R)-1-(1-((S)-2-hydroxybutanoyl)piperidin-4-yl)ethylamino)-4-(5-(trifluoromethyl)-1H-pyrrolo[2,3-b]pyridin-3-yl)pyrimidine-5-carbonitrile] | < 3 nM
14 | CC[C@@H](O)C(=O)N1CCC([C@@H](C)Nc2ncc(C#N)c(-c3c[nH]c4ncc(C(F)(F)F)cc34)n2)CC1 [Compound I-219, 2-((R)-1-(1-((R)-2-hydroxybutanoyl)piperidin-4-yl)ethylamino)-4-(5-(trifluoromethyl)-1H-pyrrolo[2,3-b]pyridin-3-yl)pyrimidine-5-carbonitrile] | < 3 nM
15 | CC(Nc1ncc(C#N)c(-c2c[nH]c3ncc(C(F)(F)F)cc23)n1)C1CN(C(=O)[C@@H](C)O)C1 (stereo partly drawn) [Compound I-222, 2-(1-(1-((R)-2-hydroxypropanoyl)azetidin-3-yl)ethylamino)-4-(5-(trifluoromethyl)-1H-pyrrolo[2,3-b]pyridin-3-yl)pyrimidine-5-carbonitrile] | < 3 nM
16 | C[C@@H](Nc1ncc(C#N)c(-c2c[nH]c3ncc(C(F)(F)F)cc23)n1)c1ccc(NCCN2CCCC2)nc1 [Compound I-223, 2-((R)-1-(6-(2-(pyrrolidin-1-yl)ethylamino)pyridin-3-yl)ethylamino)-4-(5-(trifluoromethyl)-1H-pyrrolo[2,3-b]pyridin-3-yl)pyrimidine-5-carbonitrile] | 3 to 40 nM
17 | C[C@@H](Nc1ncc(C#N)c(-c2c[nH]c3ncc(C(F)(F)F)cc23)n1)C1CCN(C(=O)CCN)CC1 [Compound I-224, 2-((R)-1-(1-(3-aminopropanoyl)piperidin-4-yl)ethylamino)-4-(5-(trifluoromethyl)-1H-pyrrolo[2,3-b]pyridin-3-yl)pyrimidine-5-carbonitrile] | < 3 nM
18 | C[C@@H](N)C(=O)N1CCC([C@@H](C)Nc2ncc(C#N)c(-c3c[nH]c4ncc(C(F)(F)F)cc34)n2)CC1 [Compound I-225, 2-((R)-1-(1-((R)-2-aminopropanoyl)piperidin-4-yl)ethylamino)-4-(5-(trifluoromethyl)-1H-pyrrolo[2,3-b]pyridin-3-yl)pyrimidine-5-carbonitrile] | < 3 nM
19 | CC[C@@H](N)C(=O)N1CCC([C@@H](C)Nc2ncc(C#N)c(-c3c[nH]c4ncc(C(F)(F)F)cc34)n2)CC1 [Compound I-226, 2-((R)-1-(1-((R)-2-aminobutanoyl)piperidin-4-yl)ethylamino)-4-(5-(trifluoromethyl)-1H-pyrrolo[2,3-b]pyridin-3-yl)pyrimidine-5-carbonitrile] | < 3 nM
20 | C[C@@H](Nc1ncc(C#N)c(-c2c[nH]c3ncc(C(F)(F)F)cc23)n1)C1CCN(C(=O)[C@H](O)C(F)(F)F)CC1 [Compound I-230, 2-((R)-1-(1-((S)-3,3,3-trifluoro-2-hydroxypropanoyl)piperidin-4-yl)ethylamino)-4-(5-(trifluoromethyl)-1H-pyrrolo[2,3-b]pyridin-3-yl)pyrimidine-5-carbonitrile] | < 3 nM
21 | CC(=O)C(=O)N1CCC([C@@H](C)Nc2ncc(C#N)c(-c3c[nH]c4ncc(C(F)(F)F)cc34)n2)CC1 [Compound I-231, 2-((R)-1-(1-(2-oxopropanoyl)piperidin-4-yl)ethylamino)-4-(5-(trifluoromethyl)-1H-pyrrolo[2,3-b]pyridin-3-yl)pyrimidine-5-carbonitrile] | < 3 nM
22 | C[C@@H](Nc1ncc(C#N)c(-c2c[nH]c3ncc(C(F)(F)F)cc23)n1)C1CCN(C(=O)CC#N)CC1 [Compound I-233, 2-((R)-1-(1-(2-cyanoacetyl)piperidin-4-yl)ethylamino)-4-(5-(trifluoromethyl)-1H-pyrrolo[2,3-b]pyridin-3-yl)pyrimidine-5-carbonitrile] | < 3 nM
23 | CC(Nc1ncc(C#N)c(-c2c[nH]c3ncc(C(F)(F)F)cc23)n1)C1(F)CCN(C(=O)CN)CC1 (stereo not drawn) [Compound I-234, 2-(1-(1-(2-aminoacetyl)-4-fluoropiperidin-4-yl)ethylamino)-4-(5-(trifluoromethyl)-1H-pyrrolo[2,3-b]pyridin-3-yl)pyrimidine-5-carbonitrile] | < 3 nM
24 | CC(Nc1ncc(C#N)c(-c2c[nH]c3ncc(C(F)(F)F)cc23)n1)C1CN(C(=O)CN)C1 (stereo not drawn) [Compound I-235, 2-(1-(1-(2-aminoacetyl)azetidin-3-yl)ethylamino)-4-(5-(trifluoromethyl)-1H-pyrrolo[2,3-b]pyridin-3-yl)pyrimidine-5-carbonitrile] | > 40 nM
25 | C[C@@H](Nc1ncc(C#N)c(-c2c[nH]c3ncc(C(F)(F)F)cc23)n1)C1CCN(C(=O)[C@@H]2CCCN2)CC1 [Compound I-236, 2-((R)-1-(1-((S)-pyrrolidine-2-carbonyl)piperidin-4-yl)ethylamino)-4-(5-(trifluoromethyl)-1H-pyrrolo[2,3-b]pyridin-3-yl)pyrimidine-5-carbonitrile] | < 3 nM
26 | CC(Nc1ncc(C#N)c(-c2c[nH]c3ncc(C(F)(F)F)cc23)n1)C1(F)CCN(C(=O)[C@@H](C)O)CC1 (stereo partly drawn) [Compound I-237, 2-(1-(4-fluoro-1-((R)-2-hydroxypropanoyl)piperidin-4-yl)ethylamino)-4-(5-(trifluoromethyl)-1H-pyrrolo[2,3-b]pyridin-3-yl)pyrimidine-5-carbonitrile] | < 3 nM
27 | CC(Nc1ncc(C#N)c(-c2c[nH]c3ncc(C(F)(F)F)cc23)n1)C1(F)CCN(CC#N)CC1 (stereo not drawn) [Compound I-238, 2-(1-(1-(cyanomethyl)-4-fluoropiperidin-4-yl)ethylamino)-4-(5-(trifluoromethyl)-1H-pyrrolo[2,3-b]pyridin-3-yl)pyrimidine-5-carbonitrile] | < 3 nM
